Test system: Candida albicans
Assay: Fungal load: patient with severe candidiasis (present-tense example)
Format: in vivo, human
Settings: two weeks, before YG Product
Method: The following present-tense examples are intended to illustrate and summarize the teachings of the preceding examples that describe actual clinical data with over 100 AIDS and ARC patients.
The candidiasis clears. A dose is administered by one of the following routes: intradermally, subcutaneously, orally, transmucosally, sublingually, or transdermally.

Compound: OC(Cn1cncn1)(Cn1cncn1)c1ccc(F)cc1F [Fluconazole]
- effect of antifungal treatment alone on severe candidiasis: without effect

Source: patent US7419776B1, “Method of reducing pathogen load” (priority 1999, dated 2008)
